These results are taken from PubChem BioAssay AID489021 (Sanford-Burnham Center for Chemical Genomics, 2010).

In this experiment the test system is HEK-293T cytotoxicity, luminescence. Nature of the experiment: HEK-293T cell viability reduction – luminescence, B-cell screen hits, cytotoxicity control for BCR NF-kB inhibitor project, dose response (AID 489021).

Calls of active or inactive are those of the source. The rule behind the calls is not given here.

Usually IC50 stands for the concentration needed to halve the response being measured. In the case of `COc1ccc(/C=C\C(=O)O[C@@H]2C(O)C(O[C@@H]3OC(C)[C@H](O[C@@H]4OCC(O[C@H]5O[C@H](CO)[C@@H](O)C(O)C5O)C(O)C4O)C(O)C3O)[C@H](OC(=O)[C@]34CCC(C)(C)C[C@@H]3C3=CCC5[C@@]6(C)CC(O)C(O[C@@H]7OC(CO)C(O)[C@H](O)[C@H]7O)[C@@](C)(C(=O)O)C6CC[C@@]5(C)[C@]3(CO)CC4)O[C@H]2C)cc1` (stereo partly specified), the IC50 is 60.7 µM (inactive).
